# From patent EP4806898A1, “HETEROARYL DERIVATIVE COMPOUND AND USE THEREOF” (Voronoi Inc., priority 2023, dated 2025)
# Where two headings read alike, the source gives them in different places.
# Experiments:
# recombinant USP1 protein = target: T1, recombinant USP1 protein (Homo sapiens, UniProt O94782, DEL125-138/DEL229-408/DEL608-737); experiment: Binding affinity to recombinant USP1 protein by differential scanning fluorimetry; conditions: read-out: ΔTm (°C)
# T1 sequence (O94782 with tags, fused parts or gaps DEL125-138/DEL229-408/DEL608-737): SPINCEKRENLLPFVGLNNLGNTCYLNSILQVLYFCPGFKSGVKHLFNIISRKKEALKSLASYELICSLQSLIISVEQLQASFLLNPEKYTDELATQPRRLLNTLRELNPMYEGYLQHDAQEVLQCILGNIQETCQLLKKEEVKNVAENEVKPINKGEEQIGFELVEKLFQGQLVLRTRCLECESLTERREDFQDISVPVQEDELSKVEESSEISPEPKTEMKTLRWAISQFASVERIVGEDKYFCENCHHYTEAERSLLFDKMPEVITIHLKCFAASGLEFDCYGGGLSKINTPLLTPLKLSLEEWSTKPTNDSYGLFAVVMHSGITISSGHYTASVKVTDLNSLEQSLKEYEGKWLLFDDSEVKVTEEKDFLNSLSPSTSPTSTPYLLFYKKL
# Outline: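 Thermal shift readout: ΔTm is the compound-well melting temperature less the DMSO-well value, measured by real-time PCR. Compounds tested at 100 µM final against 0.03 mg/mL truncated USP1 (Δ1-66, Δ125-138, Δ229-408, Δ608-737) in pH 8.0 Tris buffer containing 150 mM NaCl, 2% glycerol, 1 mM DTT.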
# UWB1.289 cells = experiment: Cell proliferation inhibitory activity in BRCA1/2-mutant or HRD-positive cells (Cell Titer-Glo); type: cell-based; conditions: read-out: GI50 UWB1.289 BRCA1 mut
# Outline: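 GI50 from CellTiter-Glo luminescence after 144 h compound exposure at 37 °C. Cells seeded at 1,000 per well in MEBM/RPMI1640 mix 16–24 h beforehand; […] from 10 µM down to 1.5 nM final (3-fold steps).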
# [1] = compound 100 µM, 0.03 mg/mL USP1 (Δ1-66, Δ125-138, Δ229-408, Δ608-737), Tm with compound minus Tm with DMSO
# [2] = UWB1289, UWB1.289 cells, 144 hours after compound treatment, Cell Titer-Glo, 1.5 nM to 10 µM
SMILES,ΔTm at 100 µM (recombinant USP1 protein; [1]),GI50 (UWB1.289 cells; [2]),ΔTm at 100 µM (recombinant USP1 protein),"GI50 (UWB1.289 cells; UWB1289, 144 h)"
"COc1ncnc(C2CC2)c1-c1ncc2cc(C(=O)NC[C@H](C)OC)n(Cc3ccc(-c4nc(C(F)(F)F)cn4C(C)C)cc3)c2n1 [Example 135, (S)-2-(4-cyclopropyl-6-methoxypyrimidin-5-yl)-7-(4-(1-isopropyl-4-(trifluoromethyl)-1H-imidazol-2-yl)benzyl)-N-(2-methoxypropyl) -7H-pyrrolo[2,3-d]pyrimidine-6-carboxamide]",> 5 °C,< 100 nM,–,–
"COc1ncnc(C2CC2)c1-c1ncc2cc(C(=O)NC3CCN(C(C)C)CC3)n(Cc3ccc(-c4nc(C(F)(F)F)cn4C(C)C)cc3)c2n1 [Example 137, 2-(4-cyclopropyl-6-methoxypyrimidin-5-yl)-7-(4-(1-isopropyl-4-(trifluoromethyl)-1H-imidazol-2-yl)benzyl)-N-(1-isopropylpiperidin-4-yl)-7H-pyrrolo[2,3-d]pyrimidine-6-carboxamide]",> 5 °C,< 100 nM,–,–
"COc1ncnc(C2CC2)c1-c1ncc2cc(C(=O)NC3(CO)COC3)n(Cc3ccc(-c4nc(C(F)(F)F)cn4C(C)C)cc3)c2n1 [Example 138, 2-(4-cyclopropyl-6-methoxypyrimidin-5-yl)-N-(3-(hydroxymethyl)oxetan-3-yl)-7-(4-(1-isopropyl-4-(trifluoromethyl)-1H-imidazol-2-yl)benzyl)-7H-pyrrolo[2,3-d]pyrimidine-6-carboxamide]",> 5 °C,< 100 nM,–,–
"COc1ncnc(C2CC2)c1-c1ncc2cc(C(=O)N(C)CC3COC3)n(Cc3ccc(-c4nc(C(F)(F)F)cn4C(C)C)cc3)c2n1 [Example 139, 2-(4-cyclopropyl-6-methoxypyrimidin-5-yl)-7-(4-(1-isopropyl-4-(trifluoromethyl)-1H-imidazol-2-yl)benzyl)-N-methyl-N-(oxetan-3-ylmethyl)-7H-pyrrolo[2,3-d]pyrimidine-6-carboxamide]",–,–,> 5 °C,< 100 nM
"COc1ncnc(C2CC2)c1-c1ncc2cc(C(=O)NCC3(O)COC3)n(Cc3ccc(-c4nc(C(F)(F)F)cn4C(C)C)cc3)c2n1 [Example 140, 2-(4-cyclopropyl-6-methoxypyrimidin-5-yl)-N-((3-hydroxyoxetan-3-yl)methyl)-7-(4-(1-isopropyl-4-(trifluoromethyl)-1H-imidazol-2-yl)benzyl)-7H-pyrrolo[2,3-d]pyrimidine-6-carboxamide]",–,–,> 5 °C,< 100 nM
"COc1ncnc(C2CC2)c1-c1ncc2cc(C(=O)NCC3COC3)n(Cc3ccc(-c4nc(C(F)(F)F)cn4C(C)C)cc3)c2n1 [Example 141, 2-(4-cyclopropyl-6-methoxypyrimidin-5-yl)-7-(4-(1-isopropyl-4-(trifluoromethyl)-1H-imidazol-2-yl)benzyl)-N-(oxetan-3-ylmethyl) -7H-pyrrolo[2,3-d]pyrimidine-6-carboxamide]",> 5 °C,< 100 nM,–,–
"COc1ncnc(C2CC2)c1-c1ncc2cc(C(=O)NCC3(F)COC3)n(Cc3ccc(-c4nc(C(F)(F)F)cn4C(C)C)cc3)c2n1 [Example 142, 2-(4-cyclopropyl-6-methoxypyrimidin-5-yl)-N-((3-fluorooxetan-3-yl)methyl)-7-(4-(1-isopropyl-4-(trifluoromethyl)-1H-imidazol-2-yl)benzyl)-7H-pyrrolo[2,3-d]pyrimidine-6-carboxamide]",> 5 °C,< 100 nM,–,–
"CNCCNC(=O)c1cc2cnc(-c3c(OC)ncnc3C3CC3)nc2n1Cc1ccc(-c2nc(C(F)(F)F)cn2C(C)C)cc1 [Example 143, 2-(4-cyclopropyl-6-methoxypyrimidin-5-yl)-7-(4-(1-isopropyl-4-(trifluoromethyl)-1H-imidazol-2-yl)benzyl) -N-(2-(methylamino)ethyl)-7H-pyrrolo[2,3-d]pyrimidine-6-carboxamide]",> 5 °C,100 to 500 nM,–,–

# Further lines, with some results ahead:
ΔTm at 100 µM (recombinant USP1 protein; [1]),SMILES,GI50 (UWB1.289 cells; [2]),ΔTm at 100 µM (recombinant USP1 protein),"GI50 (UWB1.289 cells; UWB1289, 144 h)"
> 5 °C,"CNC1CN(C(=O)c2cc3cnc(-c4c(OC)ncnc4C4CC4)nc3n2Cc2ccc(-c3nc(C(F)(F)F)cn3C(C)C)cc2)C1 [Example 144, (2-(4-cyclopropyl-6-methoxypyrimid in-5-yl)-7-(4-(1-isopropyl-4-(trifluoromethyl)-1H-imidazol-2-yl)benzyl) -7H-pyrrolo[2,3-d]pyrimidin-6-yl) (3-(methylamino)azetidin-1-yl)methanone]",< 100 nM,–,–
> 5 °C,"CNC(=O)c1cc2cnc(-c3c(OC)ncnc3C3CC3)nc2n1Cc1ccc(-c2nc(C(F)(F)F)cn2C2CC2)cc1 [Example 145, 7-(4-(1-cyclopropyl-4-(trifluoromethyl) -1H-imidazol-2-yl)benzyl)-2-(4-cyclopropyl-6-methoxypyrimidin-5-yl)-N-methyl-7H-pyrrolo[2,3-d]pyrimidine-6-carboxamide]",100 to 500 nM,–,–
> 5 °C,"CNC(=O)c1cc2cnc(-c3c(OC)ncnc3C3CC3)nc2n1Cc1ccc(-c2nc(C(F)(F)F)cn2C(C)C)c(F)c1 [Example 146, 2-(4-cyclopropyl-6-methoxypyrimidin-5-yl)-7-(3-fluoro-4-(1-isopropyl-4-(trifluoromethyl)-1H-imidazol-2-yl)benzyl)-N-methyl-7H-pyrrolo[2,3-d]pyrimidine-6-carboxamide]",< 100 nM,–,–
> 5 °C,"CNC(=O)c1cc2cnc(-c3cccnc3OC)nc2n1Cc1ccc(-c2nc(C(F)(F)F)cn2C(C)C)cc1 [Example 147, 7-(4-(1-isopropyl-4-(trifluoromethyl)-1H-imidazol-2-yl)benzyl)-2-(2-methoxypyridin-3-yl)-N-methyl-7H-pyrrolo[2,3-d]pyrimidine-6-carboxamide]",< 100 nM,–,–
> 5 °C,"COc1ncnc(C2CC2)c1-c1ncc2cc(C(=O)NCCN3CCC3)n(Cc3ccc(-c4nc(C(F)(F)F)cn4C(C)C)cc3)c2n1 [Example 149, N-(2-(azetidin-1-yl)ethyl)-2-(4-cyclopropyl-6-methoxypyrimidin-5-yl)-7-(4-(1-isopropyl-4-(trifluoromethyl)-1H-imidazol-2-yl)benzyl)-7H-pyrrolo[2,3-d]pyrimidine-6-carboxamide]",< 100 nM,–,–
> 5 °C,"COc1ncnc(C2CC2)c1-c1ncc2cc(C(=O)NC3CC3)n(Cc3ccc(-c4nc(C(F)(F)F)cn4C)cc3)c2n1 [Example 150, N-cyclopropyl-2-(4-cyclopropyl-6-methoxypyrimidin-5-yl)-7-(4-(1-methyl-4-(trifluoromethyl)-1H-imidazol-2-yl)benzyl)-7H-pyrrolo[2,3-d]pyrimidine-6-carboxamide]",< 100 nM,–,–
> 5 °C,"COc1ncnc(C2CC2)c1-c1ncc2cc(C(=O)N[C@H](C)CO)n(Cc3ccc(-c4nc(C(F)(F)F)cn4C)cc3)c2n1 [Example 151, (R) -2-(4-cyclopropyl-6-methoxypyrimidin-5-yl)-N-(1-hydroxypropan-2-yl)-7-(4-(1-methyl-4-(trifluoromethyl)-1H-imidazol-2-yl)benzyl)-7H-pyrrolo[2,3-d]pyrimidine-6-carboxamide]",< 100 nM,–,–
> 5 °C,"COc1ncnc(C2CC2)c1-c1ncc2cc(C(=O)NC[C@H](O)CO)n(Cc3ccc(-c4nc(C(F)(F)F)cn4C)cc3)c2n1 [Example 152, (S)-2-(4-cyclopropyl-6-methoxypyrimidin-5-yl)-N-(2,3-dihydroxypropy 1)-7-(4-(1-methyl-4-(trifluoromethyl)-1H-imidazol-2-yl)benzyl)-7H-pyrrolo[2,3-d]pyrimidine-6-carboxamide]",100 to 500 nM,–,–
> 5 °C,"COc1ncnc(C2CC2)c1-c1ncc2cc(C(=O)NC3CCN(C)CC3)n(Cc3ccc(-c4nc(C(F)(F)F)cn4C)cc3)c2n1 [Example 153, 2-(4-cyclopropyl-6-methoxypyrimidin-5-yl)-7-(4-(1-methyl-4-(trifluoromethyl)-1H-imidazol-2-yl)benzyl)-N-(1-methylpiperidin-4-yl)-7H-pyrrolo[2,3-d]pyrimidine-6-carboxamide]",< 100 nM,–,–
> 5 °C,"CNC(=O)c1cc2cnc(-c3c(OC)ncnc3C3CC3)cc2n1Cc1ccc(-c2nc(C(F)(F)F)cn2C(C)C)cc1 [Example 154, 6-(4-cyclopropyl-6-methoxypyrimidin-5-yl)-1-(4-(1-isopropyl-4-(trifluoromethyl)-1H-imidazol-2-yl)benzyl)-N-methyl-1H-pyrrolo[3,2-c]pyridine-2-carboxamide]",< 100 nM,–,–
> 5 °C,"COc1ncnc(C2CC2)c1-c1ncc2cc(C(=O)N[C@H](CO)C(C)C)n(Cc3ccc(-c4nc(C(F)(F)F)cn4C(C)C)cc3)c2n1 [Example 155, (S)-2-(4-cyclopropyl-6-methoxypyrimidin-5-yl)-N-(1-hydroxy-3-methylbutan-2-yl)-7-(4-(1-isopropyl-4-(trifluoromethyl)-1H-imidazol-2-yl)benzyl)-7H-pyrrolo[2,3-d]pyrimidine-6-carboxamide]",< 100 nM,–,–
